target: RNA-directed RNA polymerase (Hepacivirus hominis, UniProt O39930); experiment: Inhibition HCV NS5B-mediated RNA synthesis; format: functional
Sequence (O39930 whole entry): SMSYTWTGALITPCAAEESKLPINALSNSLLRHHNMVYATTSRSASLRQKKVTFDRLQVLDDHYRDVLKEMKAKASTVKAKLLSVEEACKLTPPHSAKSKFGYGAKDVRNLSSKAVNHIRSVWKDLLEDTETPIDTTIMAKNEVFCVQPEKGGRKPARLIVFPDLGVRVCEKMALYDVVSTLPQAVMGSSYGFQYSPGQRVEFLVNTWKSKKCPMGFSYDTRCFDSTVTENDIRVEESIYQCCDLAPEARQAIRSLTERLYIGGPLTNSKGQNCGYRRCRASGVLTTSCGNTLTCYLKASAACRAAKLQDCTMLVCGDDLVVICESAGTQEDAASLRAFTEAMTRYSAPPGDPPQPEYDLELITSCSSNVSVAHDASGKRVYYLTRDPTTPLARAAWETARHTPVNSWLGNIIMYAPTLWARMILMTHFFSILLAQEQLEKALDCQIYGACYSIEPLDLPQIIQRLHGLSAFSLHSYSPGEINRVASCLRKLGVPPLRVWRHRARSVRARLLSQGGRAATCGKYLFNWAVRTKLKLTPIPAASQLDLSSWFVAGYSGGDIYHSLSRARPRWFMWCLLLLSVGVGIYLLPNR

Row | SMILES | IC50
1 | Nc1ncnc2c1ncn2[C@@H]1O[C@H](CO)C[C@H]1O [CORDYCEPIN] | 22 µM
2 | Nc1nc2c(ncn2[C@@H]2O[C@H](CO)C(O)[C@H]2O)c(=O)[nH]1 (single isomer, unassigned) | 20 µM
3 | C[C@@]1(O)[C@H](O)[C@@H](CO)O[C@H]1n1cnc2c(=O)[nH]c(N)nc21 [2'-B-METHYL-GUANOSINE] | 0.13 µM
4 | C[C@@]1(O)[C@@H](CO)O[C@@H](n2cnc3c(N)ncnc32)[C@@H]1O | > 50 µM
5 | Nc1ncnc2c1ncn2[C@@H]1O[C@H](CO)[C@@H](O)[C@H]1F [2'-BETA-FLUORO-2',3'-DEOXYADENOSINE] | > 50 µM
6 | C[C@@]1(O)[C@H](O)[C@@H](CO)O[C@H]1n1cnc2c(N)nc(N)nc21 | 2.6 µM
7 | C[C@@]1(O)[C@H](O)[C@@H](CO)O[C@H]1n1cnc2c(=O)[nH]cnc21 | 4 µM
8 | C[C@]1(O)[C@H](O)[C@@H](CO)O[C@H]1n1cnc2c(N)ncnc21 | > 50 µM
9 | CC[C@@]1(O)[C@H](O)[C@@H](CO)O[C@H]1n1cnc2c(N)ncnc21 | > 50 µM
10 | Nc1nc2c(ncn2[C@@H]2O[C@H](CO)C[C@H]2O)c(=O)[nH]1 | 0.6 µM
11 | CO[C@@H]1[C@H](O)[C@@H](CO)O[C@H]1n1cnc2c(=O)[nH]c(N)nc21 | 1.6 µM
12 | Nc1ncnc2c1ncn2[C@@H]1O[C@H](CO)[C@@H](F)[C@H]1O | 28 µM
13 | C[C@@]1(O)[C@H](O)[C@@H](CO)O[C@H]1n1cnc2cnc(N)nc21 | 46 µM
14 | CO[C@]1(C)[C@H](O)[C@@H](CO)O[C@H]1n1cnc2c(N)ncnc21 | > 50 µM
15 | C[C@]1(O)[C@@H](CO)O[C@@H](n2cnc3c(N)ncnc32)[C@@H]1O | > 50 µM
16 | C[C@@]1(O)[C@H](O)[C@@H](CO)O[C@H]1n1cnc2c(N)ncnc21 | 1.9 µM
17 | Nc1ncnc2c1ncn2[C@@H]1O[C@H](CO)[C@@H](O)[C@@H]1O [VIDARABINE] | 50 µM
18 | Nc1nc2c(ncn2[C@@H]2O[C@H](CO)[C@@H](F)[C@H]2O)c(=O)[nH]1 | 1.8 µM
19 | CO[C@@H]1[C@H](O)[C@@H](CO)O[C@H]1n1cnc2c(N)ncnc21 | 47 µM
